Reference: EP1841748B1, “ORGANOSELENIUM CONTAINING COMPOUNDS AND THEIR USE” (Seoul National University Industry Foundation, priority 2004, dated 2006)

How the values were obtained:
[1] = GTT (glucose tolerance test): improvement of diabetes; type: in vivo, mice; settings: after 78-day oral administration; for change of blood sugar level with time: followed to 120 minutes
Procedure: GTT (glucose tolerance test) was performed in order to confirm the diabetic improvement effect of the compound of the present invention. A vehicle, GW501516 and HK101225 were orally administered to mice over a 78-day period. Then, glucose (1.5 g/kg) was abdominally administered and change of blood sugar level with time was checked.

[2] = Animal test: prevention of obesity under high-fat diet; type: in vivo, C57BL/6 mice; settings: for increase in body weight: 10 mg/kg/day orally over a 78-day period of high-fat diet (feed with 35 % fat), vehicle group 102 %; for increase in body weight relative to the vehicle group: 10 mg/kg/day orally, 78-day high-fat diet, fraction of vehicle group's increase
Procedure: Animal test was performed with mice in order to confirm the in vivo effect of HK101225. 14-weeks old C57BL/6 mice (SLC Co.) were used and a feed containing 35 % of fat was given to induce obesity. A vehicle, GW501516 (10 mg/kg/day) and HK101225 (10 mg/kg/day) were orally administered over a 78-day period of high-fat diet. […] Thus, it was confirmed that HK101225 has a strong prevention effect against obesity.

PPARα = target: T1, PPARα (Homo sapiens, UniProt Q07869); experiment: Transfection assay (luciferase reporter, full-length PPARs plasmid DNA) in CV-1 cells; type: cell-based; settings: 24 hours treatment, luciferase calibrated with β-galactosidase
T1 construct: Full-length PPARs plasmid DNA, reporter DNA, which has luciferase activity; expressed in transfected cells; host or cells: CV-1 cells
T1 sequence (Q07869 1-468): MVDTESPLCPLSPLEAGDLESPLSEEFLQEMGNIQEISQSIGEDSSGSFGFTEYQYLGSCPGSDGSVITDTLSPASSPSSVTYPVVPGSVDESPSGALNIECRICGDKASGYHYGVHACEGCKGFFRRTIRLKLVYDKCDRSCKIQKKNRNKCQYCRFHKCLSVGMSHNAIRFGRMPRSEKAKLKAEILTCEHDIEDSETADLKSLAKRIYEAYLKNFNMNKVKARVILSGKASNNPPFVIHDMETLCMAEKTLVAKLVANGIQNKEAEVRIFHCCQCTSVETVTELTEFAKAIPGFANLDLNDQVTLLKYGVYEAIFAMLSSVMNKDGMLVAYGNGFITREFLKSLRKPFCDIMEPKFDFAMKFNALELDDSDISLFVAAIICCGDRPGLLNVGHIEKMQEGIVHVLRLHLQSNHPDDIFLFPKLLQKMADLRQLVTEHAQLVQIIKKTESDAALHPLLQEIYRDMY
Procedure: (§1) Transfection assay was performed using CV-1 cells. The cells were cultured with a DMEM medium containing 10 % FBS, DBS (delipidated) and 1 % penicillin/streptomycin in 37 °C of a transfection assay culture system containing 5 % of carbon dioxide on a 96-well plate. Test was performed in four stages - cell inoculation, transfection, treatment with the compound of the present invention and confirmation. The CV-1 cells were inoculated on the 96-well plate, 5,000 cells/well. Transfection was performed 24 hours later. Full-length PPARs plasmid DNA, reporter DNA, which has luciferase activity and thus enables confirmation of the activity for PPARs, and β-galactosidase DNA, which offers effective information on the transfection, were used. HK101225 prepared in Example 4 was dissolved in dimethylsulfoxide (DMSO) and treated to the cells at various concentrations. After 24 hours of culturing in an incubator, the cells were lysed with a lysis buffer and luciferase activity and β-galactosidase activity were measured using a luminometer and a microplate reader. The measured luciferase activity was calibrated with the β-galactosidase activity. The result was depicted on a graph and EC50 was determined.

PPARγ = target: T2, PPARγ (Homo sapiens, UniProt P37231); experiment: as above; type: cell-based; settings: 24 hours treatment, luciferase calibrated with β-galactosidase
T2 construct: Full-length PPARs plasmid DNA, reporter DNA, which has luciferase activity; expressed in transfected cells; host or cells: CV-1 cells
T2 sequence (P37231 1-505): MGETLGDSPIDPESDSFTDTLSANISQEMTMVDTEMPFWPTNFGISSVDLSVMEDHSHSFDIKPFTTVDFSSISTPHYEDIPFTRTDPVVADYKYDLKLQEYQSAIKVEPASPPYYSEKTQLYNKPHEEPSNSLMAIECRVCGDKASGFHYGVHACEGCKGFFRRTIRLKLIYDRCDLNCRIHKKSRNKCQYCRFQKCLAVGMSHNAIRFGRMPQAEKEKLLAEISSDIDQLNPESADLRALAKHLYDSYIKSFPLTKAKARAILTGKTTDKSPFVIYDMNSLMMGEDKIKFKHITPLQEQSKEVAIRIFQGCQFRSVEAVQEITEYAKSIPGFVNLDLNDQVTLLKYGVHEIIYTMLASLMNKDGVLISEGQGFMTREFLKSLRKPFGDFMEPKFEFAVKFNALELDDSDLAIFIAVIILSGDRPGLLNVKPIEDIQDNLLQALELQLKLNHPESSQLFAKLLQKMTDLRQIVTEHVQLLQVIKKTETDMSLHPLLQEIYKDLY
Procedure: as §1

PPARδ = target: T3, PPARδ (Homo sapiens, UniProt Q03181); experiment: as above; type: cell-based; settings: 24 hours treatment, luciferase calibrated with β-galactosidase
T3 construct: Full-length PPARs plasmid DNA, reporter DNA, which has luciferase activity; expressed in transfected cells; host or cells: CV-1 cells
T3 sequence (Q03181 1-441): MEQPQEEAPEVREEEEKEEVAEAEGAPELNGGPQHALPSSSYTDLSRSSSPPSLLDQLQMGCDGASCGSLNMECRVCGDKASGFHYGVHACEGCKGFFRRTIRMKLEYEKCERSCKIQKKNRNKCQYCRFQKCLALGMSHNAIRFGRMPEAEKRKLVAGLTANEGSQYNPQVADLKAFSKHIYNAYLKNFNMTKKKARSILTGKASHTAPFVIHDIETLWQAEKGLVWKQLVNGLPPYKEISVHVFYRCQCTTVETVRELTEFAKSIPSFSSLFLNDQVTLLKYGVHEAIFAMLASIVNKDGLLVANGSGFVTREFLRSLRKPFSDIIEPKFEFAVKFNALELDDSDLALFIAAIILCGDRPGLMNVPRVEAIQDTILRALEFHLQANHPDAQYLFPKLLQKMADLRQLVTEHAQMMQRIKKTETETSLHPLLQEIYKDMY
Procedure: as §1

CV-1 cells = experiment: MTT assay (cell toxicity); type: cell-based; settings: 24 hours, at the concentration of 50,000 times of the EC50 (1.87 nM) value
Procedure: Toxicity was tested by MTT assay for HK101225 prepared in Example 4. MTT is a water-soluble, yellow substance. However, when introduced in a living cell, it is transformed into a water-insoluble, purple crystal by the mitochondrial dehydrogenase. Cell toxicity can be tested by dissolving this substance in dimethylsulfoxide and measuring light absorbance at 550 nm. The test was performed as follows.
CV-1 cells were inoculated on a 96-well plate, 5,000 cells/well. After culturing for 24 hours in a humidified culture system of 37 °C containing 5 % of carbon dioxide, the cells were treated with HK101225 at various concentrations. MTT reagent was added after 24 hours of culturing. After culturing for about 15 minutes, the purple crystal was dissolved in dimethylsulfoxide and absorbance was measured with a microplate reader to confirm cell toxicity.

| SMILES | change of blood sugar level with time ([1]; glucose 1.5 g/kg abdominally) | increase in body weight [2] | increase in body weight relative to the vehicle group [2] | EC50 (PPARα) | EC50 (PPARγ) | EC50 (PPARδ) | toxicity (CV-1 cells) | fasting blood sugar level ([1]; compared with vehicle and GW501516 groups) | time to complete glucose clearance ([1]; glucose 1.5 g/kg abdominally) |
| --- | --- | --- | --- | --- | --- | --- | --- | --- | --- |
| Cc1cc(SCc2sc(-c3ccc(C(F)(F)F)cc3)nc2C)ccc1OCC(=O)O [GW501516, [2-methyl-4-[[[4-methyl-2-[4-(trifluoromethyl)phenyl]-1,3-thiazol-5-yl]methyl]sulfanyl]phenoxy]acetic acid, reference compound] | blood sugar level lower than that of the vehicle group, but did not restore to the normal level | 21% | about 1/5 |  |  |  |  |  |  |
| Cc1cc([Se]Cc2sc(-c3ccc(C(F)(F)F)cc3)nc2C)ccc1OCC(=O)O [HK101225, 2-[4-[[2-[4-(trifluoromethyl)phenyl]-4-methylthiazol-5-yl]methylselanyl]-2-methylphenoxy]acetic acid] | rapid decrease of blood sugar level between 20 and 40 minutes | 21% | about 1/5 | > 10 µM | > 10 µM | 0.00187 µM | no toxicity | lower fasting blood sugar level than the groups to which the vehicle and GW501516 were administered | 100 min |
